Experimental findings from PubChem BioAssay (NCI) are described below.

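Step 1: Grow cells in 96-well plates. Step 2: Expose to compound for 48 hours at 5 concentrations. Step 3: Interpolate endpoints linearly; if unreached, use highest concentration. TGI: total growth inhibition.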

This experiment relates to P388 leukemia. In words: NCI tumour cell line growth inhibition, 48 h.

On to `CCOC(=O)c1ccc(N[C@@H]2c3cc4c(cc3C(c3cc(OC)c(O)c(OC)c3)[C@H]3C(=O)OCC32)OCO4)cc1` (stereo partly specified), for which the TGI was 0.0208 µM.
